Source: publication PMC11901381 (Future Medicinal Chemistry, 2025)

Columns and labels:
[1] = Host cell toxicity, resazurin assay; format: cell-based; details: human
General = format: cell-based; details: African green monkey, Vero cells (monkey kidney epithelial cells)
[2] = tested on: L. donovani strain 9515 intramacrophage amastigotes; experiment: Intramacrophage antileishmanial resazurin assay; format: cell-based, Leishmania donovani; details: for SI2: SI2 = IC50 Vero/static IC50 amastigote; for SI2 / SI3 / SpI1 / SpI2: L. donovani; for SI3: SI3 = IC50 Vero/cidal IC50 amastigote; for SpI1: SpI1 = IC50 promastigote/static IC50 amastigote; for SpI2: SpI2 = IC50 promastigote/cidal IC50 amastigote; for Static anti-amastigote activity IC50: L. donovani 9515 amastigotes in THP-1 macrophages, 24 hours after lysis
[3] = tested on: T. brucei brucei strain GUTat3.1; experiment: Antitrypanosomal assay; format: cell-based, Trypanosoma brucei brucei; details: for IC50: Trypanosoma brucei, read-out: Antitrypomastigote activity IC50 ± SD Tbb GuTat3.1
[4] = Animal cytotoxicity, CCK-8 assay; format: cell-based, bovine; details: bovine, MDBK (Madin-Darby bovine kidney) cells
[5] = tested on: L. major strain NIH S promastigotes; experiment: Antipromastigote resazurin assay; format: cell-based, Leishmania major; details: for AG (activity gain): IC50 (1)/IC50 (compd.), L. major promastigotes; for IC50: Leishmania major, read-out: Antipromastigote activity IC50; for SI4: SI4 = IC50 Vero/IC50 promastigote, L. major
[6] = tested on: L. donovani strain 9515 promastigotes; experiment: Antipromastigote resazurin assay; format: cell-based, Leishmania donovani; details: for AG (activity gain): IC50 (1)/IC50 (compd.), L. donovani promastigotes; for IC50: Leishmania donovani, read-out: Antipromastigote activity IC50; for SI1: SI1 = IC50 Vero/IC50 promastigote, L. donovani
[7] = tested on: L. major strain NIH S intramacrophage amastigotes; experiment: Intramacrophage antileishmanial resazurin assay; format: cell-based, Leishmania major; details: for Static anti-amastigote activity IC50: L. major NIH S amastigotes in THP-1 macrophages, 24 hours after lysis; for SI5: SI5 = IC50 Vero/static IC50 amastigote; for SI5 / SpI3 / SpI4 / SI6: L. major; for SpI3: SpI3 = IC50 promastigote/static IC50 amastigote; for SpI4: SpI4 = IC50 promastigote/cidal IC50 amastigote; for SI6: SI6 = IC50 Vero/cidal IC50 amastigote
[8] = Solubility observed during sample preparation and screening; format: physicochemical; details: for Solubility in 100% DMSO: 100% dimethyl sulfoxide used for sample preparation
[9] = tested on: T. brucei rhodesiense strain IL1501; experiment: Antitrypanosomal assay; format: cell-based, Trypanosoma brucei rhodesiense; details: IC50 of MDBK/IC50 of trypanosome
[10] = tested on: T. brucei gambiense strain IL1922; experiment: Antitrypanosomal assay; format: cell-based, Trypanosoma brucei gambiense; details: IC50 of MDBK/IC50 of trypanosome
[11] = tested on: T. congolense strain IL3000; experiment: Antitrypanosomal assay; format: cell-based, Trypanosoma congolense; details: IC50 of MDBK/IC50 of trypanosome

With O=Cc1cn(Cc2ccccc2)c2ccc([N+](=O)[O-])cc12 [2c, 1-Benzyl-5-nitro-1 H-indole-3-carbaldehyde] the IC50 [1] was over 100 µM, the IC50 (General) was over 100 µM and the SI2 [2] was 28. The SI3 [2] was 28, the SpI1 [2] was 28 and the SpI2 [2] was 28. The IC50 [3] was over 89 µM and the IC50 [4] was over 357 µM.

With O=[N+]([O-])c1ccc2[nH]ccc2c1 [compound 1, 5-nitroindole] the IC50 [1] was over 100 µM, the IC50 (General) was 79.5 ± 14.9 µM and the “AG (activity gain)” value [5] was 1. For the same compound, the IC50 [5] was 45.8 ± 5.47 µM, the SI4 [5] was 2 and the “Static anti-amastigote activity IC50” value [2] was “inactive”. The “AG (activity gain)” value [6] was 1, the IC50 [6] was 50.3 ± 1.36 µM and the SI1 [6] was 2. The IC50 [3] was over 154 µM and the “Static anti-amastigote activity IC50” value [7] was “inactive”.

With O=C1CSC(=S)N1/N=C/c1cn(Cc2ccc(F)cc2)c2ccc([N+](=O)[O-])cc12 [4e, (E)-3-({[1-(4-Fluorobenzyl)-5-nitro-1 H-indol-3-yl]methylene}amino)-2-thioxothiazolidin-4-one] the “Solubility in aqueous screening medium” value [8] was “poor solubility”, the IC50 (General) was over 100 µM and the “SI Tbr IL1501” value [9] was 0. The “SI Tbg IL1922” value [10] was 0, the IC50 [5] was over 100 µM and the IC50 [6] was over 100 µM. For the same compound, the “SI Tbb GuTat3.1” value ([3]; IC50 of MDBK/IC50 of trypanosome) was 0, the IC50 [3] was 55.3 ± 4.84 µM and the IC50 [4] was 22.4 ± 5.37 µM.

With Cc1ccc(Cn2cc(/C=C3\SC(=S)NC3=O)c3cc([N+](=O)[O-])ccc32)cc1 [3d, (Z)-5-{[1-(4-Methylbenzyl)-5-nitro-1 H-indol-3-yl]methylene}-2-thioxothiazolidin-4-one] the IC50 [1] was over 100 µM, the IC50 (General) was 98.2 ± 1.62 µM and the IC50 [5] was over 100 µM. The SI2 [2] was 19, the SI3 [2] was 17 and the SpI1 [2] was 17. The SpI2 [2] was 15, the “AG (activity gain)” value [6] was 0.6 and the IC50 [6] was 87.4 ± 17.8 µM. The SI1 [6] was 1, the IC50 [3] was over 70 µM and the SI5 [7] was 78. It also gave a SpI3 [7] of 79 and a SpI4 [7] of 107.

CC[C@H]1CN2CCc3cc(OC)c(OC)cc3[C@@H]2C[C@@H]1C[C@H]1NCCc2cc(OC)c(OC)cc21 [Em, emetine, reference compound] showed an IC50 (General) of 0.09 ± 0.009 µM.

In the case of O=Cc1cn(Cc2cccc(Cl)c2)c2ccc([N+](=O)[O-])cc12 [2f, 1-(3-Chlorobenzyl)-5-nitro-1 H-indole-3-carbaldehyde], the IC50 [1] is reported as over 100 µM, the IC50 (General) is reported as 99.91 ± 0.13 µM and the “AG (activity gain)” value [5] is reported as 5.3. The SI4 [5] was 11, the IC50 [3] was over 79 µM and the SI5 [7] was 10. The SI6 [7] was 7 and the SpI4 [7] was 1.

In the case of C#CCn1cc(C=O)c2cc([N+](=O)[O-])ccc21 [2b, 5-Nitro-1-(prop-2-yn-1-yl)-1 H-indole-3-carbaldehyde], the IC50 [1] is reported as 91.1 ± 12.6 µM, the IC50 (General) is reported as over 100 µM and the IC50 [5] is reported as over 100 µM. The IC50 [6] was over 100 µM, the IC50 [3] was over 110 µM and the IC50 [4] was over 438 µM. For the same compound, the SI5 [7] was 41, the SI6 [7] was 41 and the SpI3 [7] was 41. The SpI4 [7] was 42.

For O=C1NC(=S)S/C1=C\c1cn(Cc2ccc(F)cc2)c2ccc([N+](=O)[O-])cc12 [3e, (Z)-5-{[1-(4-Fluorobenzyl)-5-nitro-1H -indol-3-yl]methylene}-2-thioxothiazolidin-4-one], the “Solubility in 100% DMSO” value [8] was “poor solubility”, the “SI Tc IL3000” value [11] was 7 and the IC50 (General) was 17.4 ± 1.33 µM. The IC50 [5] was over 100 µM, the IC50 [6] was over 100 µM and the IC50 [3] was over 63 µM. For the same compound, the IC50 [4] was 17 ± 2.65 µM.

With Cc1ccc(Cn2cc(/C=N/N3C(=O)CSC3=S)c3cc([N+](=O)[O-])ccc32)cc1 [4d, (E)-3-({[1-(4-Methylbenzyl)-5-nitro-1H -indol-3-yl]methylene}amino)-2-thioxothiazolidin-4-one] the “Solubility in aqueous screening medium” value [8] was “poor solubility”, the IC50 (General) was over 100 µM and the “AG (activity gain)” value [5] was 0.7. For the same compound, the IC50 [5] was 70.9 ± 14.3 µM, the SI4 [5] was 1 and the “Static anti-amastigote activity IC50” value [2] was “inactive”. For the same compound, the IC50 [6] was over 100 µM, the IC50 [3] was over 58 µM and the “Static anti-amastigote activity IC50” value [7] was “inactive”.

For O=C1CSC(=S)N1/N=C/c1cn(Cc2ccccc2)c2ccc([N+](=O)[O-])cc12 [4c, (E)-3-{[(1-Benzyl-5-nitro-1 H-indol-3-yl)methylene]amino}-2-thioxothiazolidin-4-one], the IC50 [1] was over 100 µM, the IC50 (General) was over 100 µM and the IC50 [5] was over 100 µM. For the same compound, the IC50 [6] was over 100 µM, the IC50 [3] was over 60 µM and the SI5 [7] was 38. For the same compound, the SI6 [7] was 41, the SpI3 [7] was 38 and the SpI4 [7] was 41.

In the case of O=C1CSC(=S)N1/N=C/c1c[nH]c2ccc([N+](=O)[O-])cc12 [4a, (E)-3-{[(5-Nitro-1 H-indol-3-yl)methylene]amino}-2-thioxothiazolidin-4-one], the IC50 (General) is reported as over 100 µM, the IC50 [5] is reported as over 100 µM and the IC50 [6] is reported as over 100 µM. For the same compound, the IC50 [3] was over 61 µM and the IC50 [4] was 66.8 ± 9.55 µM.

Compound C[C@@H]1[C@H](O)[C@@H](C)/C=C/C=C/C=C/C=C/C=C/C=C/C=C/[C@H](O[C@@H]2O[C@H](C)[C@@H](O)[C@H](N)[C@@H]2O)C[C@@H]2O[C@](O)(C[C@@H](O)C[C@@H](O)[C@H](O)CC[C@@H](O)C[C@@H](O)CC(=O)O[C@H]1C)C[C@H](O)[C@H]2C(=O)O [AMB, amphotericin B, reference compound] has a SpI1 [2] of 0.40, a SpI2 [2] of 0.04 and an IC50 [6] of 0.02 ± 0.009 µM. For the same compound, the SpI3 [7] was 0.1 and the SpI4 [7] was 0.2.

With C#CCn1cc(/C=N/N2C(=O)CSC2=S)c2cc([N+](=O)[O-])ccc21 [4b, (E)-3-({[5-Nitro-1-(prop-2-yn-1-yl)-1 H-indol-3-yl]methylene}amino)-2-thioxothiazolidin-4-one] the “Solubility in aqueous screening medium” value [8] was “poor solubility”, the IC50 [1] was over 100 µM and the IC50 (General) was over 100 µM. It also gave an IC50 [5] of over 100 µM, an IC50 [6] of over 100 µM and an IC50 [3] of over 59 µM. The SI5 [7] was 11, the SI6 [7] was 12 and the SpI3 [7] was 11. It also gave a SpI4 [7] of 12.

For O=C1NC(=S)S/C1=C\c1cn(Cc2cccc(Cl)c2)c2ccc([N+](=O)[O-])cc12 [3f, (Z)-5-{[1-(3-Chlorobenzyl)-5-nitro-1 H-indol-3-yl]methylene}-2-thioxothiazolidin-4-one], the “Solubility in 100% DMSO” value [8] was “poor solubility”, the IC50 [1] was over 100 µM and the IC50 (General) was 22.2 ± 1.65 µM. The “AG (activity gain)” value [5] was 2.6, the IC50 [5] was 17.7 ± 0.9 µM and the SI4 [5] was 1. For the same compound, the SI2 [2] was 12, the SI3 [2] was 11 and the SpI1 [2] was 10. The SpI2 [2] was 10, the “AG (activity gain)” value [6] was 2.6 and the IC50 [6] was 19.1 ± 3.7 µM. It also gave an SI1 [6] of 1, an IC50 [3] of over 61 µM and an SI5 [7] of 5. It also gave an SI6 [7] of 8, a SpI3 [7] of 4 and a SpI4 [7] of 7.

In the case of O=C1NC(=S)S/C1=C\c1cn(Cc2ccccc2)c2ccc([N+](=O)[O-])cc12 [3c, (Z)-5-[(1-Benzyl-5-nitro-1 H-indol-3-yl)methylene]-2-thioxothiazolidin-4-one], the IC50 [1] is reported as over 100 µM, the “SI Tc IL3000” value [11] is reported as 5 and the IC50 (General) is reported as 18.8 ± 3.22 µM. It also gave an IC50 [5] of over 100 µM, an SI2 [2] of 6 and an SI3 [2] of 6. For the same compound, the SpI1 [2] was 34, the SpI2 [2] was 33 and the IC50 [6] was over 100 µM. For the same compound, the IC50 [3] was over 73 µM, the IC50 [4] was 99.13 ± 0.96 µM and the SI5 [7] was 35. For the same compound, the SI6 [7] was 37, the SpI3 [7] was 189 and the SpI4 [7] was 196.

In the case of Cc1ccc(Cn2cc(C=O)c3cc([N+](=O)[O-])ccc32)cc1 [2d, 1-(4-Methylbenzyl)-5-nitro-1 H-indole-3-carbaldehyde], the IC50 [1] is reported as over 100 µM, the IC50 (General) is reported as 96.9 ± 5.35 µM and the “AG (activity gain)” value [5] is reported as 32.3. The SI4 [5] was 68, the “AG (activity gain)” value [6] was 61 and the SI1 [6] was 117. For the same compound, the IC50 [3] was over 85 µM.

Work on Cc1ccc(C(=O)Nc2ccc(S(=O)(=O)O)c3cc(S(=O)(=O)O)cc(S(=O)(=O)O)c23)cc1NC(=O)c1cccc(NC(=O)Nc2cccc(C(=O)Nc3cc(C(=O)Nc4ccc(S(=O)(=O)O)c5cc(S(=O)(=O)O)cc(S(=O)(=O)O)c45)ccc3C)c2)c1 [Suramin, suramin, reference compound] yielded an IC50 [3] of 0.07 ± 0.02 µM and an IC50 [4] of over 70 µM.

Compound O=C1CSC(=S)N1/N=C/c1cn(Cc2cccc(Cl)c2)c2ccc([N+](=O)[O-])cc12 [4f, (E)-3-({[1-(3-Chlorobenzyl)-5-nitro-1 H-indol-3-yl]methylene}amino)-2-thioxothiazolidin-4-one] has an IC50 (General) of 58.8 ± 13.2 µM, an IC50 [5] of over 100 µM and an IC50 [6] of over 100 µM. It also gave an IC50 [3] of over 56 µM.

In the case of O=Cc1c[nH]c2ccc([N+](=O)[O-])cc12 [2a, 5-Nitro-1H-indole-3-carbaldehyde], the IC50 (General) is reported as over 100 µM, the IC50 [5] is reported as over 100 µM and the IC50 [6] is reported as over 100 µM. For the same compound, the IC50 [3] was over 131 µM and the IC50 [4] was over 526 µM.
